The values below come from patent US8003621B2, “Drug carriers” (Nitto Denko Corporation, priority 2007, dated 2011).

For this data set, the system named is red blood cell. Kind of data set: Hemolytic assay. Also on record: species or system nude mice. The note with it: 0.2% TritonX-100, 100 μL/well with 10 μL of blood sample; 60 minutes at 37° C. The protocol:
Blood samples of nude mice were collected in heparinize-tubes and were centrifuged at 700×g for 10 minutes. The supernatant was discarded, and the red blood cell pellet was washed three times with cold PBS (pH 7.4) and was re-suspended in the same buffer. Solutions of the polymers and the siEGFP of different concentrations were prepared in PBS buffers and were added to the round-bottom plate at 100 μL/well. Blood sample (10 μL) was added to each well, and the plate was incubated for 60 minutes at 37° C. The release of hemoglobin was determined by photospectrometric analysis after centrifugation (700 g for 10 min). The supernatant (100 μL) from each well was transferred into flat-bottom plate. Intensity of […] at 540 nm was measured by a plate reader.

Consider TritonX-100, for which the “hemolysis (control value)” value stood at 100%.
